Measured values: patent US10851073B2, “Protein tyrosine phosphatase inhibitors and methods of use thereof” (Calico Life Sciences LLC, priority 2019, dated 2020)

Experiments:
[1] = target: T1, His tagged PTPN2 (TC45) protein (Homo sapiens, UniProt P17706); assay: Mobility shift assay used to determine potency of PTPN2 inhibitors; assay type: biochemical; conditions: enzyme 0.5 nM, substrate 2 μM; read-out: PTPN2 MSA IC50
T1 construct: made in house
T1 sequence (P17706 with tags, fused parts or gaps isoform P17706-2): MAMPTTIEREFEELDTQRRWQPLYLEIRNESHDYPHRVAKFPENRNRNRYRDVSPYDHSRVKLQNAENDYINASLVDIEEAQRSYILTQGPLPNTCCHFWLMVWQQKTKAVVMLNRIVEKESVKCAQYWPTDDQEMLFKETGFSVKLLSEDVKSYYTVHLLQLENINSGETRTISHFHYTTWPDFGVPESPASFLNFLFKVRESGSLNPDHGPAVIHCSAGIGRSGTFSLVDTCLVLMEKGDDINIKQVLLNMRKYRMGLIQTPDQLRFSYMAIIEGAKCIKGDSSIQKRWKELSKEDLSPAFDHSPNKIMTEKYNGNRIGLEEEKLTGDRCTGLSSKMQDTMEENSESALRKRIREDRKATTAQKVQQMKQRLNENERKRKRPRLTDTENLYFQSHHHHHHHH
In short: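 Microfluidic mobility-shift read-out (488/530 nm) of dephosphorylation of an OG488-tagged phosphotyrosine insulin receptor peptide, 2 μM, over 10 min at room temperature, after 10 min compound preincubation with 0.5 nM enzyme. Buffer: 50 mM HEPES pH 7.5, EGTA, EDTA, Tween 20, DTT. IC50 derived from % inhibition over 12-point 1:3 series.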

[2] = target: T2, His tagged full-length PTPN1 protein (Homo sapiens, UniProt P18031); assay: Mobility shift assay (MSA) used to determine potency of PTPN1 inhibitors; assay type: biochemical; conditions: enzyme 0.5 nM, substrate 2 μM
T2 construct: made in house
T2 sequence (P18031 with tags, fused parts or gaps): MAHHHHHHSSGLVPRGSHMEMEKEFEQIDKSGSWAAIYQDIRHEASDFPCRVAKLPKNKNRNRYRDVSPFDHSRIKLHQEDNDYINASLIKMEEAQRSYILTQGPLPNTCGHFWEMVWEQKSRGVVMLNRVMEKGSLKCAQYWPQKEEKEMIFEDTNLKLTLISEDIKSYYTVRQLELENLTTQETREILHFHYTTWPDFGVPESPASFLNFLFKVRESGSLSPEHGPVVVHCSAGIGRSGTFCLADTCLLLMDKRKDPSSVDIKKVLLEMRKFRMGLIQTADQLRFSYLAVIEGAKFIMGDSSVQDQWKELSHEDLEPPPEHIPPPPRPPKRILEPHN
In short: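 Full-length His-tagged human PTPN1 (0.5 nM) was preincubated 10 min at room temperature with compound (12-point, 1:3 dilution) in HEPES pH 7.5 buffer with EGTA, EDTA, Tween 20 and DTT. A 2 μM fluorescent phospho-insulin receptor peptide was then added for 10 min before quench. Mobility-shift % conversion gave % inhibition and IC50.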

[3] = system: B16F10 mouse melanoma cells; assay: B16F10 IFNγ-induced cellular growth inhibition assay; assay type: cell-based; conditions: B16-F10, with 0.5 ng/mL IFNγ, read-out: B16F10 GI IC50
In short: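 B16F10 cells grown in DMEM+10% FBS, with or without 0.5 ng/mL final mouse IFNγ, and dosed in triplicate at 100 μM to 0.001 μM final (0.1% DMSO). Confluence imaged every 6 h for 5 days; percent growth inhibition versus DMSO/with-IFNγ control taken once DMSO/no-IFNγ wells exceeded 95% confluence, giving IC50.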

Compound	IC50 [1]	IC50 [2]	IC50 [3]
O=C1CN(c2c(O)cc3c(c2F)CC(NCCC(C(F)(F)F)C(F)(F)F)CC3)S(=O)(=O)N1 (stereo not drawn) [Compound 131, 5-(1-fluoro-3-hydroxy-7-{[4,4,4-trifluoro-3-(trifluoromethyl)butyl]amino}-5,6,7,8-tetrahydronaphthalen-2-yl)-1λ^6,2,5-thiadiazolidine-1,1,3-trione]	1 to 10 nM	1 to 10 nM	< 1000 nM
O=C1CN(c2c(O)cc3c(c2F)CC(NCCc2ccccn2)CC3)S(=O)(=O)N1 (stereo not drawn) [Compound 135, 5-(1-fluoro-3-hydroxy-7-{[2-(pyridin-2-yl)ethyl]amino}-5,6,7,8-tetrahydronaphthalen-2-yl)-1λ^6,2,5-thiadiazolidine-1,1,3-trione]	10 to 100 nM	10 to 100 nM	1000 to 10000 nM
O=C1CN(c2c(O)cc3c(c2F)CC(OCCCC(F)(F)F)CC3)S(=O)(=O)N1 (stereo not drawn) [Compound 142, 5-[1-fluoro-3-hydroxy-7-(4,4,4-trifluorobutoxy)-5,6,7,8-tetrahydronaphthalen-2-yl]-1λ^6,2,5-thiadiazolidine-1,1,3-trione]	1 to 10 nM	10 to 100 nM	10000 to 100000 nM
CC(C)(C#N)CCNC1CCc2cc(O)c(N3CC(=O)NS3(=O)=O)c(F)c2C1 (stereo not drawn) [Compound 150, 4-{[8-fluoro-6-hydroxy-7-(1,1,4-trioxo-1λ^6,2,5-thiadiazolidin-2-yl)-1,2,3,4-tetrahydronaphthalen-2-yl]amino}-2,2-dimethylbutanenitrile]	1 to 10 nM	1 to 10 nM	1000 to 10000 nM
O=C1CN(c2c(O)cc3c(c2F)CC(NCCC(O)C(F)(F)F)CC3)S(=O)(=O)N1 (stereo not drawn) [Compound 151, 5-{1-fluoro-3-hydroxy-7-[(4,4,4-trifluoro-3-hydroxybutyl)amino]-5,6,7,8-tetrahydronaphthalen-2-yl}-1λ^6,2,5-thiadiazolidine-1,1,3-trione]	1 to 10 nM	10 to 100 nM	1000 to 10000 nM
O=C1CN(c2c(O)cc3c(c2F)CC(NCC(O)CC(F)(F)F)CC3)S(=O)(=O)N1 (stereo not drawn) [Compound 156, 5-{1-fluoro-3-hydroxy-7-[(4,4,4-trifluoro-2-hydroxybutyl)amino]-5,6,7,8-tetrahydronaphthalen-2-yl}-1λ^6,2,5-thiadiazolidine-1,1,3-trione]	1 to 10 nM	1 to 10 nM	< 1000 nM
O=C1CN(c2c(O)cc3c(c2F)CC(NCCOC(F)F)CC3)S(=O)(=O)N1 (stereo not drawn) [Compound 157, 5-(7-{[2-(difluoromethoxy)ethyl]amino}-1-fluoro-3-hydroxy-5,6,7,8-tetrahydronaphthalen-2-yl)-1λ^6,2,5-thiadiazolidine-1,1,3-trione]	1 to 10 nM	10 to 100 nM	1000 to 10000 nM
CC(C)C1CCN(C2CCc3cc(O)c(N4CC(=O)NS4(=O)=O)c(F)c3C2)C1 (stereo not drawn) [Compound 172, 5-{1-fluoro-3-hydroxy-7-[3-(propan-2-yl)pyrrolidin-1-yl]-5,6,7,8-tetrahydronaphthalen-2-yl}-1λ^6,2,5-thiadiazolidine-1,1,3-trione]	10 to 100 nM	10 to 100 nM	1000 to 10000 nM
O=C1CN(c2c(O)cc3c(c2F)CC(NCCC2CCCCC2)CC3)S(=O)(=O)N1 (stereo not drawn) [Compound 173, 5-{7-[(2-cyclohexylethyl)amino]-1-fluoro-3-hydroxy-5,6,7,8-tetrahydronaphthalen-2-yl}-1λ^6,2,5-thiadiazolidine-1,1,3-trione]	1 to 10 nM	1 to 10 nM	< 1000 nM
CC(C)(C)CCNC1CCc2cc(O)c(N3CC(=O)NS3(=O)=O)c(F)c2C1 (stereo not drawn) [Compound 174, 5-{7-[(3,3-dimethylbutyl)amino]-1-fluoro-3-hydroxy-5,6,7,8-tetrahydronaphthalen-2-yl}-1λ^6,2,5-thiadiazolidine-1,1,3-trione]	1 to 10 nM	1 to 10 nM	< 1000 nM
CCCCNC1CCc2cc(O)c(N3CC(=O)NS3(=O)=O)c(F)c2C1 (stereo not drawn) [Compound 175, 5-[7-(butylamino)-1-fluoro-3-hydroxy-5,6,7,8-tetrahydronaphthalen-2-yl]-1λ^6,2,5-thiadiazolidine-1,1,3-trione]	1 to 10 nM	10 to 100 nM	< 1000 nM
O=C1CN(c2c(O)cc3c(c2F)CC(NCCC2CCCC2)CC3)S(=O)(=O)N1 (stereo not drawn) [Compound 178, 5-{7-[(2-cyclopentylethyl)amino]-1-fluoro-3-hydroxy-5,6,7,8-tetrahydronaphthalen-2-yl}-1λ^6,2,5-thiadiazolidine-1,1,3-trione]	< 1 nM	1 to 10 nM	< 1000 nM
O=C1CN(c2c(O)cc3c(c2F)CC(NCCO)CC3)S(=O)(=O)N1 (stereo not drawn) [Compound 180, 5-{1-fluoro-3-hydroxy-7-[(2-hydroxyethyl)amino]-5,6,7,8-tetrahydronaphthalen-2-yl}-1λ^6,2,5-thiadiazolidine-1,1,3-trione]	10 to 100 nM	> 100 nM	1000 to 10000 nM
O=C1CN(c2c(O)cc3c(c2F)CC(NCCC2CCC2)CC3)S(=O)(=O)N1 (stereo not drawn) [Compound 185, 5-{7-[(2-cyclobutylethyl)amino]-1-fluoro-3-hydroxy-5,6,7,8-tetrahydronaphthalen-2-yl}-1λ^6,2,5-thiadiazolidine-1,1,3-trione]	1 to 10 nM	1 to 10 nM	< 1000 nM
CC(C)C(O)CNC1CCc2cc(O)c(N3CC(=O)NS3(=O)=O)c(F)c2C1 (stereo not drawn) [Compound 187, 5-{1-fluoro-3-hydroxy-7-[(2-hydroxy-3-methylbutyl)amino]-5,6,7,8-tetrahydronaphthalen-2-yl}-1λ^6,2,5-thiadiazolidine-1,1,3-trione]	1 to 10 nM	1 to 10 nM	< 1000 nM
O=C1CN(c2c(O)cc3c(c2F)CC(NCC(O)C2CC2)CC3)S(=O)(=O)N1 (stereo not drawn) [Compound 188, 5-{7-[(2-cyclopropyl-2-hydroxyethyl)amino]-1-fluoro-3-hydroxy-5,6,7,8-tetrahydronaphthalen-2-yl}-1λ^6,2,5-thiadiazolidine-1,1,3-trione]	10 to 100 nM	10 to 100 nM	< 1000 nM
C[Si](C)(C)CCCNC1CCc2cc(O)c(N3CC(=O)NS3(=O)=O)c(F)c2C1 (stereo not drawn) [Compound 189, 5-(1-fluoro-3-hydroxy-7-{[3-(trimethylsilyl)propyl]amino}-5,6,7,8-tetrahydronaphthalen-2-yl)-1λ^6,2,5-thiadiazolidine-1,1,3-trione]	1 to 10 nM	> 100 nM	1000 to 10000 nM
C[Si](C)(O)CCCNC1CCc2cc(O)c(N3CC(=O)NS3(=O)=O)c(F)c2C1 (stereo not drawn) [Compound 190, 5-[1-fluoro-3-hydroxy-7-({3-[hydroxy(dimethyl)silyl]propyl}amino)-5,6,7,8-tetrahydronaphthalen-2-yl]-1λ^6,2,5-thiadiazolidine-1,1,3-trione]	1 to 10 nM	10 to 100 nM	1000 to 10000 nM
CC(C)(O)CCOC1CCc2cc(O)c(N3CC(=O)NS3(=O)=O)c(F)c2C1 (stereo not drawn) [Compound 197, 5-[1-fluoro-3-hydroxy-7-(3-hydroxy-3-methylbutoxy)-5,6,7,8-tetrahydronaphthalen-2-yl]-1λ^6,2,5-thiadiazolidine-1,1,3-trione]	10 to 100 nM	10 to 100 nM	1000 to 10000 nM
CCC(C)CCN[C@@H]1CCc2cc(O)c(N3CC(=O)NS3(=O)=O)c(F)c2C1 (stereo partly drawn) [Compound 203, 5-{(7R)-1-fluoro-3-hydroxy-7-[(3-methylpentyl)amino]-5,6,7,8-tetrahydronaphthalen-2-yl}-1λ^6,2,5-thiadiazolidine-1,1,3-trione]	< 1 nM	1 to 10 nM	< 1000 nM
O=C1CN(c2c(O)cc3c(c2F)CC(NCCC(F)F)CC3)S(=O)(=O)N1 (stereo not drawn) [Compound 223, 5-{7-[(3,3-difluoropropyl)amino]-1-fluoro-3-hydroxy-5,6,7,8-tetrahydronaphthalen-2-yl}-1λ^6,2,5-thiadiazolidine-1,1,3-trione]	10 to 100 nM	1 to 10 nM	< 1000 nM
